Measurements as given in ChEMBL document CHEMBL4041467, “Synthesis of novel 15-membered 8a-azahomoerythromycin A acylides: Consequences of structural modification at the C-3 and C-6 position on antibacterial activity” (Eur J Med Chem, 2017).
Values after ≈ are worked out from the molar mass of the structure shown.

Columns and labels:
Streptococcus pyogenes [1] = experiment: Antibacterial activity against constitutively macrolide/lincosamide/streptogramin B-resistant Streptococcus pyogenes by agar microdilution method; format: functional
Streptococcus pneumoniae [2] = experiment: Antibacterial activity against constitutively macrolide/lincosamide/streptogramin B-resistant Streptococcus pneumoniae by agar microdilution method; format: functional
Streptococcus pneumoniae [3] = experiment: Antibacterial activity against erythromycin susceptible Streptococcus pneumoniae by agar microdilution method; format: functional
Staphylococcus aureus [4] = experiment: Antibacterial activity against inducibly macrolide/lincosamide/streptogramin B-resistant Staphylococcus aureus by agar microdilution method; format: functional
Staphylococcus aureus [5] = experiment: Antibacterial activity against constitutively macrolide/lincosamide/streptogramin B-resistant Staphylococcus aureus by agar microdilution method; format: functional
Streptococcus pyogenes [6] = experiment: Antibacterial activity against erythromycin susceptible Streptococcus pyogenes by agar microdilution method; format: functional
Streptococcus pneumoniae [7] = experiment: Antibacterial activity against Mef-mediated macrolide efflux resistant Streptococcus pneumoniae by agar microdilution method; format: functional
Staphylococcus aureus [8] = experiment: Antibacterial activity against erythromycin susceptible Staphylococcus aureus by agar microdilution method; format: functional
Streptococcus pyogenes [9] = experiment: Antibacterial activity against Mef-mediated macrolide efflux resistant Streptococcus pyogenes by agar microdilution method; format: functional
Haemophilus influenzae = experiment: Antibacterial activity against Haemophilus influenzae by agar microdilution method; format: functional
Staphylococcus aureus [10] = experiment: Antibacterial activity against erythromycin susceptible Staphylococcus aureus infected in mouse assessed as increase in mouse survival administered orally 1 hr post infection; format: functional; details: po
Streptococcus pneumoniae [11] = experiment: Antibacterial activity against erythromycin susceptible Streptococcus pneumoniae infected in mouse assessed as increase in mouse survival administered orally 1 hr post infection; format: functional; details: po
Staphylococcus aureus [12] = experiment: Potency index, ratio of clarithromycin ED50 to compound ED50 for erythromycin susceptible Staphylococcus aureus infected in mouse; format: functional
Streptococcus pneumoniae [13] = experiment: Potency index, ratio of clarithromycin ED50 to compound ED50 for erythromycin susceptible Streptococcus pneumoniae infected in mouse; format: functional
Staphylococcus aureus [14] = experiment: Ratio of MIC for inducibly macrolide/lincosamide/streptogramin B-resistant Staphylococcus aureus to MIC for erythromycin susceptible Staphylococcus aureus; format: functional
[15] = Protein binding in mouse plasma at 1 ug/ml by LC-MS/MS analysis; format: ADME, cell-free; details: read-out: PPB (converted)
[16] = Protein binding in rat plasma at 1 ug/ml by LC-MS/MS analysis; format: ADME, cell-free; details: read-out: PPB (converted)
[17] = Protein binding in human plasma at 1 ug/ml by LC-MS/MS analysis; format: ADME, cell-free; details: read-out: PPB (converted)
[18] = Metabolic stability in mouse liver microsomes assessed as parent compound remaining at 1 uM after 60 mins in presence of NADP by LC-MS/MS analysis; format: ADME, microsome; details: read-out: Stability
[19] = Metabolic stability in rat liver microsomes assessed as parent compound remaining at 1 uM after 60 mins in presence of NADP by LC-MS/MS analysis; format: ADME, microsome; details: read-out: Stability
[20] = Metabolic stability in human liver microsomes assessed as parent compound remaining at 1 uM after 60 mins in presence of NADP by LC-MS/MS analysis; format: ADME, microsome; details: read-out: Stability
[21] = Cmax in Han Wistar rat at 10 mg/kg, iv by LC-MS/MS analysis; format: ADME, organism-based; parameters: dose 10 mg/kg, route intravenous; details: in vivo
[22] = AUC(0 to infinity) in Han Wistar rat at 10 mg/kg, iv by LC-MS/MS analysis; format: ADME, organism-based; parameters: dose 10 mg/kg, route intravenous, time infinity; details: in vivo
[23] = Terminal half life in Han Wistar rat at 10 mg/kg, iv by LC-MS/MS analysis; format: ADME, organism-based; details: in vivo, read-out: beta t1/2 (converted)
[24] = Clearance in Han Wistar rat at 10 mg/kg, iv by LC-MS/MS analysis; format: ADME, organism-based; details: in vivo
Rattus norvegicus = experiment: Unbound clearance in Han Wistar rat at 10 mg/kg, iv by LC-MS/MS analysis; format: ADME, organism-based; details: in vivo
[25] = Volume of distribution at steady state in Han Wistar rat at 10 mg/kg, iv by LC-MS/MS analysis; format: ADME, organism-based; details: in vivo, read-out: Vdss
[26] = Fraction unbound in Han Wistar rat plasma at 10 mg/kg, iv by LC-MS/MS analysis; format: ADME, organism-based
[27] = Cmax in Han Wistar rat at 20 mg/kg, po by LC-MS/MS analysis; format: ADME, organism-based; parameters: dose 20 mg/kg, route oral; details: in vivo
[28] = Tmax in Han Wistar rat at 20 mg/kg, po by LC-MS/MS analysis; format: ADME, organism-based; details: in vivo
[29] = AUC(0 to infinity) in Han Wistar rat at 20 mg/kg, po by LC-MS/MS analysis; format: ADME, organism-based; parameters: dose 20 mg/kg, time infinity, route oral; details: in vivo
[30] = Oral bioavailability in Han Wistar rat at 20 mg/kg by LC-MS/MS analysis; format: ADME, organism-based; details: in vivo

| SMILES | MIC (Streptococcus pyogenes [1]) [µg/mL] | MIC (Streptococcus pneumoniae [2]) [µg/mL] | MIC (Streptococcus pneumoniae [3]) [µg/mL] | MIC (Staphylococcus aureus [4]) [µg/mL] | MIC (Staphylococcus aureus [5]) [µg/mL] | MIC (Streptococcus pyogenes [6]) [µg/mL] | MIC (Streptococcus pneumoniae [7]) [µg/mL] | MIC (Staphylococcus aureus [8]) [µg/mL] | MIC (Streptococcus pyogenes [9]) [µg/mL] | MIC (Haemophilus influenzae) [µg/mL] | ED50 (Staphylococcus aureus [10]) [mg/kg] | ED50 (Streptococcus pneumoniae [11]) [mg/kg] | fraction unbound at 1 ug/ml [15] | fraction unbound at 1 ug/ml [16] | fraction unbound at 1 ug/ml [17] | remaining at 1 h, 1 µM [18] [%] | remaining at 1 h, 1 µM [19] [%] | remaining at 1 h, 1 µM [20] [%] | also measured |
| --- | --- | --- | --- | --- | --- | --- | --- | --- | --- | --- | --- | --- | --- | --- | --- | --- | --- | --- | --- |
| C=CCO[C@]1(C)C[C@@H](C)NC(=O)[C@H](C)[C@@H](O)[C@](C)(O)[C@@H](CC)OC(=O)[C@H](C)[C@@H](OC(=O)CCN2CCN(c3cc4c(cc3F)c(=O)c(C(=O)OC)cn4C3CC3)CC2)[C@H](C)[C@H]1O[C@@H]1O[C@H](C)C[C@H](N(C)C)[C@H]1O | 32 (≈ 31.1 µM) | 8 (≈ 7.77 µM) | 2 (≈ 1.94 µM) | 4 (≈ 3.88 µM) | > 64 | 2 (≈ 1.94 µM) | 4 (≈ 3.88 µM) | 2 (≈ 1.94 µM) | 8 (≈ 7.77 µM) | 8 (≈ 7.77 µM) |  |  |  |  |  |  |  |  |  |
| CC[C@H]1OC(=O)[C@H](C)[C@@H](OC(=O)CCNCCNc2cc3c(=O)c(C(=O)O)cn(C4CC4)c3cc2Cl)[C@H](C)[C@@H](O[C@@H]2O[C@H](C)C[C@H](N(C)C)[C@H]2O)[C@](C)(OC/C=C/c2ccc3ncccc3c2)C[C@@H](C)NC(=O)[C@H](C)[C@@H](O)[C@]1(C)O | 4 (≈ 3.53 µM) |  | ≤ 0.125 | 0.25 (≈ 0.221 µM) | > 64 | ≤ 0.125 | 0.25 (≈ 0.221 µM) | 0.25 (≈ 0.221 µM) | 0.25 (≈ 0.221 µM) | 4 (≈ 3.53 µM) | 12.8 | 15.1 |  |  |  |  |  |  | Ratio ED50 (Staphylococcus aureus [12]): 2; Ratio ED50 (Streptococcus pneumoniae [13]): 2 |
| CC[C@H]1OC(=O)[C@H](C)[C@@H](OC(=O)CCNCCNc2cc3c(=O)c(C(=O)O)cn(C4CC4)c3cc2Cl)[C@H](C)[C@@H](O[C@@H]2O[C@H](C)C[C@H](N(C)C)[C@H]2O)[C@](C)(OC/C=C/c2ccnc3ccccc23)C[C@@H](C)NC(=O)[C@H](C)[C@@H](O)[C@]1(C)O | 32 (≈ 28.2 µM) | 4 (≈ 3.53 µM) | 0.25 (≈ 0.221 µM) | 0.5 (≈ 0.441 µM) | > 64 | 0.5 (≈ 0.441 µM) | 1 (≈ 0.882 µM) | 0.5 (≈ 0.441 µM) | 4 (≈ 3.53 µM) | 16 (≈ 14.1 µM) |  |  |  |  |  |  |  |  |  |
| CC[C@H]1OC(=O)[C@H](C)[C@@H](O[C@H]2C[C@@](C)(OC)[C@@H](O)[C@H](C)O2)[C@H](C)[C@@H](O[C@@H]2O[C@H](C)C[C@H](N(C)C)[C@H]2O)[C@](C)(O)C[C@@H](C)CN(C)[C@H](C)[C@@H](O)[C@]1(C)O [AZITHROMYCIN] | > 64 | > 64 | ≤ 0.125 | > 64 | > 64 | ≤ 0.125 | 4 (≈ 5.34 µM) | 1 (≈ 1.34 µM) | 1 (≈ 1.34 µM) | 1 (≈ 1.34 µM) |  |  | 0.73 | 0.72 | 0.64 | 100 | 100 | 100 | Ratio (Staphylococcus aureus [14]): 64 |
| CCOc1ccc2ccc(=O)oc2c1 [ETHOXYCOUMARIN] |  |  |  |  |  |  |  |  |  |  |  |  |  |  |  | 30 | 57 | 18 |  |
| CC[C@H]1OC(=O)[C@H](C)C(=O)[C@H](C)[C@@H](O[C@@H]2O[C@H](C)C[C@H](N(C)C)[C@H]2O)[C@](C)(OC)C[C@@H](C)C(=O)[C@H](C)[C@H]2N(CCCCn3cnc(-c4cccnc4)c3)C(=O)O[C@]12C [TELITHROMYCIN] | 4 (≈ 4.93 µM) | ≤ 0.125 | ≤ 0.06 | 0.25 (≈ 0.308 µM) | > 64 | ≤ 0.06 | ≤ 0.125 | ≤ 0.125 | 0.25 (≈ 0.308 µM) | 2 (≈ 2.46 µM) | 5 | 7.2 | 0.41 | 0.56 | 0.5 |  |  |  | Cmax [21]: 1850 ng/mL; AUC(0-inf) [22]: 3950 ng·h/mL; half-life [23]: 1.7 h; clearance [24]: 42.5 mL/min/kg; CL free (Rattus norvegicus): 75.9 mL/min/kg; Vd [25]: 5.6 L/kg; fraction unbound [26]: 0.56; Cmax [27]: 340 ng/mL; Tmax [28]: 2.3 h; AUC(0-inf) [29]: 2730 ng·h/mL; bioavailability [30]: 33% |
